In patent US20170291905A1, “ARGININE […] INHIBITORS AND USES THEREOF” (Epizyme, Inc., priority 2014, published 2017):

The compounds below were run against full-length human PRMT8 isoform 1 (Homo sapiens, UniProt Q9NR22) (assay: PRMT8 biochemical assay (3H-SAM Flashplate, histone H4 31-45 peptide)). Conditions: 1.5 nM PRMT8, 30 min preincubation, 150 nM peptide.
Chain of full-length human PRMT8 isoform 1 (Q9NR22 whole entry, canonical isoform): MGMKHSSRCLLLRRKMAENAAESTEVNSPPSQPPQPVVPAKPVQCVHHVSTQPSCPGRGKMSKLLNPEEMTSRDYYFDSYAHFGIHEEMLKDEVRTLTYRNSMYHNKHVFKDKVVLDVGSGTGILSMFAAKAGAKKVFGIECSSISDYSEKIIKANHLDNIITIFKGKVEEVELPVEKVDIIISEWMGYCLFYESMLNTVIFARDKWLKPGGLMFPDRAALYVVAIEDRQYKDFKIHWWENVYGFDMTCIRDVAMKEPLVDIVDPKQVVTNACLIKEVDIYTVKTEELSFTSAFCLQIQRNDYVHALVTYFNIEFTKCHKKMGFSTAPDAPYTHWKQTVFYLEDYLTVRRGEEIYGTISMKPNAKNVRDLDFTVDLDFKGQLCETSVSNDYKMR
Excerpt: S-adenosylmethionine (SAM), S-adenosylhomocysteine (SAH), bicine, Tween20, dimethylsulfoxide (DMSO), bovine skin gelatin (BSG), isopropyl-β-D-thiogalactopyranoside (IPTG), and Tris(2-carboxyethyl)phosphine hydrochloride solution (TCEP) were purchased from Sigma-Aldrich at the highest level of purity possible. ^3H-SAM was purchase from American Radiolabeled Chemicals with a specific activity of 80 Ci/mmol. 384-well streptavidin Flashplates were purchased from PerkinElmer.
Peptide representative of human histone H4 residues 31-45 was synthesized with an N-terminal linker-affinity tag motif and a C-terminal amide cap by 21st Century Biochemicals. The peptide was purified by high-performance liquid chromatography (HPLC) to greater than 95% purity and confirmed by liquid chromatography mass spectrometry (LC-MS). The sequence was Biot-Ahx-[…]-amide (SEQ ID NO.:8).
The resulting construct encodes an N-terminal GST tag and a thrombin cleavage sequence
E. coli (BL21(DE3) Gold, Stratagene) made competent by the CaCl2 method were transformed with the PRMT8 construct and ampicillin selection. Protein over-expression was accomplished by growing the PRMT8 expressing E. coli clone and inducing expression with 0.3 mM IPTG at 16° C. The culture was grown for 12 hours, harvested by centrifugation, and stored at −80° C. for purification.
GST-tagged PRMT8 was eluted with 50 mM Tris, 2 mM glutathione, pH 7.8. Pooled fractions were cleaved by thrombin (10U) and dialysed in buffer A. GST was removed by reloading the cleaved protein sample onto glutathione sepharose column and PRMT8 was collected in the flow-through fractions. PRMT8 was purified further by ceramic hydroxyapatite chromatography. The column was washed with 50 mM phosphate buffer, 100 mM NaCl, 5% glycerol, 5 mM […], pH 7.8 and PRMT8 was eluted by 100 mM phosphate in the same buffer. Protein was concentrated and buffer was exchanged to 50 mM Tris, 300 mM NaCl, 10% glycerol, 5 mM β-mercaptoethanol, pH 7.8 by ultrafiltration. The purity of recovered protein was 89%.
General Procedure for PRMT8 Enzyme Assays on Peptide Substrates.
The assays were all performed in a buffer consisting of 20 mM Bicine (pH=7.6), 1 mM TCEP, 0.005% BSG, and 0.002% Tween 20, prepared on the day of use. Compounds in 100% DMSO (1 ul) were spotted into a polypropylene 384-well V-bottom plates (Greiner) using a Platemate Plus outfitted with a 384-channel head (Thermo Scientific). DMSO (1 ul) was added to Columns 11, 12, 23, 24, rows A-H for the maximum signal control and 1 ul of SAH, a known product and inhibitor of PRMT8, was added to columns 11, 12, 23, 24, rows I-P for the minimum signal control. A cocktail (40 ul) containing the PRMT8 enzyme was added by Multidrop Combi (Thermo-Fisher). The compounds were allowed to incubate with PRMT8 for 30 min at room temperature, then a cocktail (10 ul) containing ^3H-SAM and peptide was added to initiate the reaction (final volume=51 ul). The final concentrations of the components were as follows: PRMT8 was 1.5 nM, ^3H-SAM was 50 nM, non-radiolabeled SAM was 550 nM, peptide was 150 nM, SAH in the minimum signal control wells was 1 mM, and the DMSO concentration was 2%. The assays were stopped by the addition of non-radiolabeled SAM (10 ul) to a final concentration of 400 uM, which dilutes the ^3H-SAM to a level where its incorporation into the peptide substrate is no longer detectable. 50 ul of the reaction in the 384-well polypropylene plate was then transferred to a 384-well Flashplate and the biotinylated peptides were allowed to bind to the streptavidin surface for at least 1 hour before being washed once with 0.1% Tween20 in a Biotek ELx405 plate washer. The plates were then read in a PerkinElmer TopCount plate reader to measure the quantity of ^3H-labeled peptide bound to the Flashplate surface, measured as disintegrations per minute (dpm) or alternatively, referred to as counts per minute (cpm). […]
For `CNCCN(C)Cc1c[nH]nc1C1CCC(C)(C)[C@H](COCCOC)C1` (stereo partly drawn) [compound 35, {2-[({3-[(3R)-3-[(2-methoxyethoxy)methyl]-4,4-dimethylcyclohexyl]-1H-pyrazol-4-yl}methyl)(methyl)amino]ethyl}(methyl)amine], the IC50 was 110 nM. In the case of `CCCOCC1(COCCC)CCC(c2n[nH]cc2CN(C)CCNC)CC1` [compound 36, N^1-((3-(4,4-bis(propoxymethyl)cyclohexyl)-1H-pyrazol-4-yl)methyl)-N^1,N^2-dimethylethane-1,2-diamine], the IC50 is reported as 12.4 nM. `CC[C@]12CC[C@](CC)(C[C@H](c3n[nH]cc3CN(C)CCNC)C1)O2` [compound 37, N1-((3-((1R,3r,5S)-1,5-diethyl-8-oxabicyclo[3.2.1]octan-3-yl)-1H-pyrazol-4-yl)methyl)-N1,N2-dimethylethane-1,2-diamine] showed an IC50 of 45.5 nM. `CC[C@]12CC[C@](CC)(C[C@@H](c3n[nH]cc3CN(C)CCNC)C1)O2` [compound 38, N1-((3-((1R,3s,5S)-1,5-diethyl-8-oxabicyclo[3.2.1]octan-3-yl)-1H-pyrazol-4-yl)methyl)-N1,N2-dimethylethane-1,2-diamine] gave an IC50 of 177 nM. In the case of `CNCCN(C)Cc1ccnn1[C@H]1CC[C@]2(CC1)CC(C)(C)CO2` [compound 50, N1-((1-((5r,8r)-3,3-dimethyl-1-oxaspiro[4.5]decan-8-yl)-1H-pyrazol-5-yl)methyl)-N1,N2-dimethylethane-1,2-diamine], the IC50 is reported as 32.2 nM. For `Cc1[nH]nc([C@H]2CC[C@@]3(CC2)CC(C)(C)CO3)c1CN(C)CCN` [compound 51, N1-((3-((5s,8s)-3,3-dimethyl-1-oxaspiro[4.5]decan-8-yl)-5-methyl-1H-pyrazol-4-yl)methyl)-N1-methylethane-1,2-diamine], the IC50 was 14.2 nM. Work on `Cc1[nH]nc([C@H]2CC[C@]3(CC2)CC(C)(C)CO3)c1CN(C)CCN` [compound 52, N1-((3-((5r,8r)-3,3-dimethyl-1-oxaspiro[4.5]decan-8-yl)-5-methyl-1H-pyrazol-4-yl)methyl)-N1-methylethane-1,2-diamine] yielded an IC50 of 23.1 nM. With `CNCCN(C)Cc1c(C)[nH]nc1[C@H]1CC[C@@]2(CC1)CC(C)(C)CO2` [compound 57] the IC50 was 32.7 nM. With `CNCCN(C)Cc1c(C)[nH]nc1[C@H]1CC[C@]2(CC1)CC(C)(C)CO2` [compound 58] the IC50 was 55.1 nM. With `Cc1[nH]nc(C2CCC3(CC2)CC(C)(C)CO3)c1CN(C)CCN` (stereo not drawn) [compound 59] the IC50 was 17.5 nM. Compound `CCOCC1(COCC)CC=C(c2n[nH]cc2CN(C)CCNC)CC1` [compound 60] has an IC50 of 22.5 nM. `CNCCN(C)Cc1scnc1[C@H]1CC[C@@]2(CC1)CC(C)(C)CO2` [compound 62] showed an IC50 of 9.08 nM. Work on `CNCCN(C)Cc1nn(C)nc1[C@H]1CC[C@@]2(CC1)CC(C)(C)CO2` [compound 64] yielded an IC50 of 25.3 nM. Compound `CNCCN(C)Cc1cnnn1[C@H]1CC[C@@]2(CC1)CC(C)(C)CO2` [compound 65] has an IC50 of over 10000 nM. For `CNCCN(C)Cc1nn[nH]c1[C@H]1CC[C@@]2(CC1)CC(C)(C)CO2` [compound 67], the IC50 was 19.8 nM. Compound `CNCCN(C)Cc1nncn1[C@H]1CC[C@@]2(CC1)CC(C)(C)CO2` [compound 68] has an IC50 of 3480 nM. `CNCCN(C)Cc1nccn1[C@H]1CC[C@@]2(CC1)CC(C)(C)CO2` [compound 69] gave an IC50 of 273 nM. Work on `CNCCN(C)Cc1nnc(C)n1[C@H]1CC[C@@]2(CC1)CC(C)(C)CO2` [compound 71] yielded an IC50 of 4320 nM. Compound `CNCCN(C)Cc1cncn1[C@H]1CC[C@@]2(CC1)CC(C)(C)CO2` [compound 76] has an IC50 of 15.7 nM. In the case of `CNCCN(C)Cc1nc(C)sc1[C@H]1CC[C@@]2(CC1)CC(C)(C)CO2` [compound 77], the IC50 is reported as 27.7 nM. `CNCCN(C)Cc1sc(C)nc1[C@H]1CC[C@@]2(CC1)CC(C)(C)CO2` [compound 78] showed an IC50 of 33.8 nM. With `CN(CCN)Cc1nn(C)cc1[C@H]1CC[C@@]2(CC1)CC(C)(C)CO2` [compound 80] the IC50 was 12.1 nM. `CNCCN(C)Cc1nn(C)cc1[C@H]1CC[C@@]2(CC1)CC(C)(C)CO2` [compound 81] was tested, and the IC50 was 30.9 nM. For `CNCCN(C)Cc1ncsc1[C@H]1CC[C@@]2(CC1)CC(C)(C)CO2` [compound 83], the IC50 was 18.5 nM.
